Measurements: patent US12226403B2 (SPERO THERAPEUTICS, INC., priority 2016, dated 2025)

Tests used:
[1] = PK parameters for oral administration to monkeys; type: in vivo; details: cynomolgus monkey, plasma, 100 mg; oral tablets vs previously generated IV data, estimated; read-out: bioavailability of tebipenem
Experimental: Each animal received a one week wash out prior to the next dose and each served as its own control. Blood samples were collected into K2EDTA tubes before processing to plasma. Samples were obtained at 15 minutes, 30 minutes, 1 hours, 2 hours, 4 hours, 6 hours, 8 hours, 10 hours, 12 hours, 16 hours, and 24 hours post administration. […] Non-compartmental analysis used to derive pharmacokinetic parameters of the composite time vs. concentration profiles were performed for each dose level using Phoenix Winnonlin v. 6.4. Plasma concentration of tebipenem for each time point was determined by HPLC.

[2] = Previously generated IV data; details: in vivo, 10 mg/kg dose
Source text: Cmax was reduced with the modified release formulation compared to the immediate release (free base and HBr) formulation but AUCall was relatively constant between the formulations. AUCinf could not be calculated due to the variability in the terminal elimination profile. […] Mean residence time was increased in the extended release formulation.

bioavailability [1]: 39 to 50% | AUC [2]: 13100 ng·h/mL
Structure (SMILES): C[C@@H](O)[C@H]1C(=O)N2C(C(=O)O)=C(SC3CN(C4=NCCS4)C3)[C@H](C)[C@H]12 [tebipenem]
